Source: US20160102093A1, “CO-PROCESSING METHOD AND FORMULATION FOR HIV ATTACHMENT INHIBITOR PRODRUG COMPOUND AND EXCIPIENTS” (BRISTOL-MYERS SQUIBB COMPANY, priority 2011, published 2016)

Tests used:
Format in all cases: physicochemical
Details in all cases: unprocessed API vs. co-processed prodrug/HPMC batches from Example 1
Powder flow = experiment: Powder flow
Tapped density of powder = experiment: Tapped density of powder
Bulk density of powder = experiment: Bulk density of powder

Flow (Powder flow): incomplete
Volumetric Flow (Powder flow): incomplete
Tapped Density (Tapped density of powder): 0.23 g/cc
Bulk Density (Bulk density of powder): 0.13 g/cc
SMILES: COc1cnc(-n2cnc(C)n2)c2c1c(C(=O)C(=O)N1CCN(C(=O)c3ccccc3)CC1)cn2COP(=O)(O)O [API, 1-benzoyl-4-[2-[4-methoxy-7-(3-methyl-1H-1,2,4-triazol-1-yl)-1-[(phosphonooxy)methyl]-1H-pyrrolo[2,3-c]pyridin-3-yl]-1,2-dioxoethyl]-piperazine]
